Reference: patent publication US7902401B2, “Fluorinated compounds” (priority 2006, dated 2011)

How the values were obtained:
Sprague-Dawley rats = assay: Maximal Electroshock Assay (Rat); format: in vivo; details: rat MES, 0.5 h and 4 h pretreatment timepoints
Experimental: Male, Sprague-Dawley rats (approx. 100 g body weight) were prescreened for tonic seizure susceptibility prior to drug testing. […] Protection was defined by the absence of a tonic extensor seizure in the animal within 20 s of application of the electrical stimulus, which typically occurred in all vehicle pretreated animals. Animals received only one electroshock on the drug test day and so separate animals were used for the 0.5 h and 4 h timepoints. All drugs were administered in multiple doses.

CD-1 mice = assay: Maximal Electroshock Assay (Mouse); format: in vivo; details: mouse MES, 1 h and 4 h pretreatment timepoints
Experimental: Male, CD-1 mice (20-30 g body weight) were orally pretreated with test compound or vehicle control, and either at 1 h or 4 h post dose a maximal electroshock (45 mA amplitude, 0.2 s duration, 60 Hz) was applied by corneal electrodes. […] Animals received only one electroshock and so separate animals were used for the 1 h and 4 h timepoints. All drugs were administered in multiple doses.

SNI rats = assay: Spared nerve injury (SNI) model, mechanical allodynia; format: in vivo, rat; details: 30 mg/kg, i.p.
Experimental: The compounds were tested for their efficacy in reducing mechanical allodynia and cold allodynia in the spared nerve injury (SNI) model of chronic neuropathic pain. In this model, the left sciatic nerve of the rat is exposed under anesthesia. Two of the branches of the sciatic nerve viz. the common peroneal and tibial nerve are ligated and sectioned. The third branch (sural nerve) is left intact. The animals were allowed a post-operative recovery period of 7 days before they were subjected to any test.
The presence of mechanical allodynia was assessed using the Dynamic Plantar Aesthesiometer (Ugo Basile, Italy) which is a modified version of the Von Frey Hair test. In this, a test filament is positioned below the animal's hind paw and the unit is activated which causes the filament to move up and touch the plantar surface of the hind paw. Increasing force is applied to the paw via the filament. […] The cut-off force is set at 50 g. The tests were done on both the non-injured (control) and the injured (SNI) paw.
Testing of compounds was done after 21 days post-operatively. After initial basal readings were taken, the test compound or the vehicle was administered (10 ml/kg) either intraperitoneally (30 mg/kg) or orally (60 mg/kg). The readings were taken again 30, 60 and 180 min after the compound/vehicle administration.

Row | melting point | Structure (SMILES) | duration of action (Sprague-Dawley rats) | duration of action (CD-1 mice) | withdrawal threshold, Post Admin 60 min (SNI rats)
1 | 162.7 °C | CC(=O)N[C@H](COC(F)F)C(=O)NCc1ccc(F)cc1 |  |  | 
2 |  | CC(=O)NC(COC(F)F)C(=O)NCc1ccccc1 (centres unmarked) [Compound 3, 2-(Acetylamino)-N-benzyl-3-(difluoro-methoxy)propanamide] | longer than Lacosamide | longer than Lacosamide | 
3 |  | CC(=O)NC(COC(F)F)C(=O)NCc1ccc(F)cc1 (centres unmarked) [Compound 4] | longer than Lacosamide | longer than Lacosamide | 
4 |  | CC(=O)N[C@H](COC(F)F)C(=O)NCc1ccc(Cl)cc1 [Compound 20, (2R)-2-(acetylamino)-N-(4-chlorobenzyl)-3-(difluoromethoxy)propanamide] | longer than Lacosamide | longer than Lacosamide | 25.3 ± 3.2 g
